Laboratory results published in US20210267203A1, “PESTICIDALLY ACTIVE AZOLE-AMIDE COMPOUNDS” (SYNGENTA PARTICIPATIONS AG, priority 2018, published 2021).

What was measured:
Format in all cases: in vivo
[1] = test system: Diabrotica Balteata (Corn Root Worm); experiment: Example B1: Diabrotica balteata (corn root worm), maize sprouts sprayed, L2 larvae; details: 96 h, application rate 200 ppm, 4 days after infestation, read-out: effect in at least one of the two categories (mortality or growth inhibition)
Description: Example B1: Diabrotica Balteata (Corn Root Worm)
Maize sprouts placed onto an agar layer in 24-well microtiter plates were treated with aqueous test solutions prepared from 10,000 ppm DMSO stock solutions by spraying. After drying, the plates were infested with L2 larvae (6 to 10 per well). The samples were assessed for mortality and growth inhibition in comparison to untreated samples 4 days after infestation.
(§1) The following compounds gave an effect of at least 80% in at least one of the two categories (mortality or growth inhibition) at an application rate of 200 ppm: […]

[2] = test system: Plutella xylostella (Diamond Back Moth); experiment: Example B5: Plutella xylostella (diamond back moth), artificial diet, 24-well, eggs; details: 192 h, application rate 200 ppm, 8 days after infestation, read-out: effect in at least one of the two categories (mortality or growth inhibition)
Description: Example B5: Plutella xylostella (Diamond Back Moth)
24-well microtiter plates with artificial diet were treated with aqueous test solutions prepared from 10,000 ppm DMSO stock solutions by pipetting. After drying, Plutella eggs were pipetted through a plastic stencil onto a gel blotting paper and the plate was closed with it. The samples were assessed for mortality and growth inhibition in comparison to untreated samples 8 days after infestation. The following compounds gave an effect of at least 80% in at least one of the two categories (mortality or growth inhibition) at an application rate of 200 ppm: […]

[3] = test system: Spodoptera littoralis (Egyptian Cotton Leaf Worm); experiment: Example B9: Spodoptera littoralis (Egyptian cotton leaf worm), cotton leaf discs sprayed, L1 larvae; details: foliar, 72 h, application rate 200 ppm, 3 days after infestation
Description: Example B9: Spodoptera littoralis (Egyptian Cotton Leaf Worm)
Cotton leaf discs were placed onto agar in 24-well microtiter plates and sprayed with aqueous test solutions prepared from 10,000 ppm DMSO stock solutions. After drying the leaf discs were infested with five L1 larvae. The samples were assessed for mortality, anti-feeding effect, and growth inhibition in comparison to untreated samples 3 days after infestation. Control of Spodoptera littoralis by a test sample is given when at least one of the three categories (i.e. mortality, anti-feedant effect, and growth inhibition) is higher than the untreated sample.

[4] = test system: Myzus persicae (Green Peach Aphid); experiment: Example B13: activity against Myzus persicae (green peach aphid), 96-well sucrose solution; details: 120 h, application rate 50 ppm, 5 days after infestation
Excerpt: Example B13: Activity Against Myzus persicae (Green Peach Aphid)
Test compounds prepared from 10,000 ppm DMSO stock solutions were applied by a liquid handling robot into 96-well microtiter plates and mixed with a sucrose solution. Parafilm was stretched over the 96-well microtiter plate and a plastic stencil with 96 holes was placed onto the plate. Aphids were sieved into the wells directly onto the Parafilm. The infested plates were closed with a gel blotting card and a second plastic stencil and then turned upside down. The samples were assessed for mortality 5 days after infestation.

[5] = test system: Chilo suppressalis (Striped Rice Stemborer); experiment: Example B4: Chilo suppressalis (striped rice stemborer), artificial diet, L2 larvae; details: 144 h, application rate 200 ppm, 6 days after infestation
Description: Example B4: Chilo suppressalis (Striped Rice Stemborer)
24-well microtiter plates with artificial diet were treated with aqueous test solutions prepared from 10,000 ppm DMSO stock solutions by pipetting. After drying, the plates were infested with L2 larvae (6-8 per well). The samples were assessed for mortality, anti-feeding effect, and growth inhibition in comparison to untreated samples 6 days after infestation. Control of Chilo suppressalis by a test sample is given when at least one of the categories (i.e. mortality, anti-feedant effect, and growth inhibition) is higher than the untreated sample.

[6] = test system: Euschistus heros (Neotropical Brown Stink Bug); experiment: Example B2: Euschistus heros (neotropical brown stink bug), soybean leaves sprayed, N2 nymphs; details: 120 h, application rate 200 ppm, 5 days after infestation, read-out: effect in at least one of the two categories (mortality or growth inhibition)
Description: Example B2: Euschistus heros (Neotropical Brown Stink Bug)
Soybean leaves on agar in 24-well microtiter plates were sprayed with aqueous test solutions prepared from 10,000 ppm DMSO stock solutions. After drying the leaves were infested with N2 nymphs. The samples were assessed for mortality and growth inhibition in comparison to untreated samples 5 days after infestation.
as §1

[7] = test system: Plutella xylostella (Diamondback Moth); experiment: Example B14: activity against Plutella xylostella (diamondback moth), 96-well artificial diet; details: 216 h, application rate 500 ppm, 9 days after infestation
Description: Example B14: Activity Against Plutella xylostella (Diamondback Moth)
96-well microtiter plates containing artificial diet were treated with aqueous test solutions, prepared from 10,000 ppm DMSO stock solutions, by a liquid handling robot. After drying, eggs (30 per well) were infested onto a netted lid which was suspended above the diet. The eggs hatch and L1 larvae move down to the diet. The samples were assessed for mortality 9 days after infestation.
The following compounds gave an effect of at least 80% average mortality at an application rate of 500 ppm: […]

[8] = test system: Myzus persicae (Green Peach Aphid); experiment: Example B8: Myzus persicae (green peach aphid), intrinsic activity; details: 120 h, test rate 12 ppm, sucrose solution, 24-well, 5 days after infestation
Excerpt: Example B8: Myzus persicae (Green Peach Aphid), Intrinsic Activity
Test compounds prepared from 10,000 ppm DMSO stock solutions were applied by pipette into 24-well microtiter plates and mixed with sucrose solution. The plates were closed with a stretched Parafilm. A plastic stencil with 24 holes was placed onto the plate and infested pea seedlings were placed directly on the Parafilm. The infested plate was closed with a gel blotting paper and another plastic stencil and then turned upside down. The samples were assessed for mortality 5 days after infestation.

CC(NC(=O)c1cc(-c2ccccc2C(F)(F)F)cc(C(F)(F)F)c1)c1ncnn1-c1ncccn1 (stereo not drawn) [P69, N-[1-(2-pyrimidin-2-yl-1,2,4-triazol-3-yl)ethyl]-3-(trifluoromethyl)-5-[2-(trifluoromethyl)phenyl]benzamide]
≥ 80%: percent effect (mortality or growth inhibition) at 200 ppm [1] | percent effect (mortality or growth inhibition) at 200 ppm [2] | percent control (mortality, anti-feedant effect or growth inhibition) at 200 ppm [3] | mortality at 50 ppm [4] | percent control (mortality, anti-feedant effect or growth inhibition) at 200 ppm [5]

CC(c1ncnn1-c1ncccn1)N(CC1CC1)C(=O)c1cc(C(F)(F)F)nc(S(C)(=O)=O)c1 (stereo not drawn) [P53, N-(cyclopropylmethyl)-2-methylsulfonyl-N-[1-(2-pyrimidin-2-yl-1,2,4-triazol-3-yl)ethyl]-6-(trifluoromethyl)pyridine-4-carboxamide]
≥ 80%: percent effect (mortality or growth inhibition) at 200 ppm [6]

CC(NC(=O)c1cc(-c2cccc(C(F)(F)F)c2)cc(C(F)(F)F)c1)c1ncnn1-c1ncccn1 (stereo not drawn) [P68, N-[1-(2-pyrimidin-2-yl-1,2,4-triazol-3-yl)ethyl]-3-(trifluoromethyl)-5-[3-(trifluoromethyl)phenyl]benzamide]
≥ 80%: percent effect (mortality or growth inhibition) at 200 ppm [1] | percent effect (mortality or growth inhibition) at 200 ppm [2] | percent control (mortality, anti-feedant effect or growth inhibition) at 200 ppm [3] | mortality at 50 ppm [4] | percent control (mortality, anti-feedant effect or growth inhibition) at 200 ppm [5]

CC(NC(=O)c1cc(-c2ccc(C(F)(F)F)cc2)cc(C(F)(F)F)c1)c1ncnn1-c1ncccn1 (stereo not drawn) [P67, N-[1-(2-pyrimidin-2-yl-1,2,4-triazol-3-yl)ethyl]-3-(trifluoromethyl)-5-[4-(trifluoromethyl)phenyl]benzamide]
≥ 80%: percent effect (mortality or growth inhibition) at 200 ppm [1] | percent effect (mortality or growth inhibition) at 200 ppm [2] | mortality at 50 ppm [4] | percent control (mortality, anti-feedant effect or growth inhibition) at 200 ppm [5]

CC(c1ncnn1-c1ncccn1)N(CC1CC1)C(=O)c1cc(C(F)(F)F)cc(C2(C)CC2(F)F)c1 (stereo not drawn) [P44, N-(cyclopropylmethyl)-3-(2,2-difluoro-1-methyl-cyclopropyl)-N-[1-(2-pyrimidin-2-yl-1,2,4-triazol-3-yl)ethyl]-5-(trifluoromethyl)benzamide]
≥ 80%: percent effect (mortality or growth inhibition) at 200 ppm [1] | percent effect (mortality or growth inhibition) at 200 ppm [2] | percent control (mortality, anti-feedant effect or growth inhibition) at 200 ppm [3] | mortality at 50 ppm [4] | percent effect (mortality or growth inhibition) at 200 ppm [6] | mortality at 500 ppm [7]

CC(c1ncnn1-c1ncccn1)N(CC1CC1)C(=O)c1cc(OC2CC2)cc(C(F)(F)F)c1 (stereo not drawn) [P51, 3-(cyclopropoxy)-N-(cyclopropylmethyl)-N-[1-(2-pyrimidin-2-yl-1,2,4-triazol-3-yl)ethyl]-5-(trifluoromethyl)benzamide]
≥ 80%: percent effect (mortality or growth inhibition) at 200 ppm [1] | percent effect (mortality or growth inhibition) at 200 ppm [2] | percent control (mortality, anti-feedant effect or growth inhibition) at 200 ppm [3] | mortality at 50 ppm [4] | mortality at 500 ppm [7]

CC(c1ncnn1-c1ncccn1)N(CC1CC1)C(=O)c1cc(C(F)(F)F)cc(C2(C(F)(F)F)CC2(F)F)c1 (stereo not drawn) [P41, N-(cyclopropylmethyl)-3-[2,2-difluoro-1-(trifluoromethyl)cyclopropyl]-N-[1-(2-pyrimidin-2-yl-1,2,4-triazol-3-yl)ethyl]-5-(trifluoromethyl)benzamide]
≥ 80%: percent effect (mortality or growth inhibition) at 200 ppm [1] | percent effect (mortality or growth inhibition) at 200 ppm [2] | percent control (mortality, anti-feedant effect or growth inhibition) at 200 ppm [3] | percent effect (mortality or growth inhibition) at 200 ppm [6] | mortality at 500 ppm [7]

CC(NC(=O)c1cc(C(F)(F)F)cc(C(F)(F)C2CCC2)c1)c1ncnn1-c1ncccn1 (stereo not drawn) [P66, 3-[cyclobutyl(difluoro)methyl]-N-[1-(2-pyrimidin-2-yl-1,2,4-triazol-3-yl)ethyl]-5-(trifluoromethyl)benzamide]
≥ 80%: percent control (mortality, anti-feedant effect or growth inhibition) at 200 ppm [5]

CC(c1ncnn1-c1ncccn1)N(CC1CC1)C(=O)c1cccc(C2CC2C(F)(F)F)c1 (stereo not drawn) [P23, N-(cyclopropylmethyl)-N-[1-(2-pyrimidin-2-yl-1,2,4-triazol-3-yl)ethyl]-3-[2-(trifluoromethyl)cyclopropyl]benzamide]
≥ 80%: percent effect (mortality or growth inhibition) at 200 ppm [2] | mortality at 50 ppm [4] | mortality at 12 ppm [8] | mortality at 500 ppm [7]

CC(NC(=O)c1cc(C2CC2)cc(C(F)(F)F)c1)c1ncnn1-c1ccc(Br)cn1 (stereo not drawn) [P74, N-[1-[2-(5-bromo-2-pyridyl)-1,2,4-triazol-3-yl]ethyl]-3-cyclopropyl-5-(trifluoromethyl)benzamide]
≥ 80%: percent effect (mortality or growth inhibition) at 200 ppm [1] | percent effect (mortality or growth inhibition) at 200 ppm [2] | percent control (mortality, anti-feedant effect or growth inhibition) at 200 ppm [3] | percent control (mortality, anti-feedant effect or growth inhibition) at 200 ppm [5]

CC(NC(=O)c1cc(C(F)(F)F)cc(C2(C#N)CC2)c1)c1ncnn1-c1ccccn1 (stereo not drawn) [P76, 3-(1-cyanocyclopropyl)-N-[1-[2-(2-pyridyl)-1,2,4-triazol-3-yl]ethyl]-5-(trifluoromethyl)benzamide]
≥ 80%: percent effect (mortality or growth inhibition) at 200 ppm [1] | percent effect (mortality or growth inhibition) at 200 ppm [2] | percent control (mortality, anti-feedant effect or growth inhibition) at 200 ppm [3] | percent control (mortality, anti-feedant effect or growth inhibition) at 200 ppm [5]

CC(c1ncnn1-c1ncccn1)N(CC1CC1)C(=O)c1cc(OC2CC2)cc(OC2CC2)c1 (stereo not drawn) [P60, 3,5-bis(cyclopropoxy)-N-(cyclopropylmethyl)-N-[1-(2-pyrimidin-2-yl-1,2,4-triazol-3-yl)ethyl]benzamide]
≥ 80%: percent effect (mortality or growth inhibition) at 200 ppm [1] | percent effect (mortality or growth inhibition) at 200 ppm [2] | mortality at 50 ppm [4] | mortality at 500 ppm [7]

CC(c1ncnn1-c1ncccn1)N(CC1CC1)C(=O)c1cccc(C(F)(F)C2CC2)c1 (stereo not drawn) [P40, 3-[cyclopropyl(difluoro)methyl]-N-(cyclopropylmethyl)-N-[1-(2-pyrimidin-2-yl-1,2,4-triazol-3-yl)ethyl]benzamide]
≥ 80%: percent effect (mortality or growth inhibition) at 200 ppm [1] | percent effect (mortality or growth inhibition) at 200 ppm [2] | percent control (mortality, anti-feedant effect or growth inhibition) at 200 ppm [3] | mortality at 50 ppm [4] | mortality at 500 ppm [7]

CC(c1ncnn1-c1ncccn1)N(CC1CC1)C(=O)c1cccc(C2(C#N)CC2)c1 (stereo not drawn) [P21, 3-(1-cyanocyclopropyl)-N-(cyclopropylmethyl)-N-[1-(2-pyrimidin-2-yl-1,2,4-triazol-3-yl)ethyl]benzamide]
≥ 80%: mortality at 50 ppm [4] | mortality at 12 ppm [8] | mortality at 500 ppm [7]

CC(c1ncnn1-c1ncccn1)N(CC1CC1)C(=O)c1cc(C(F)(F)F)cc(C2(C#N)CC2)n1 (stereo not drawn) [P33, 6-(1-cyanocyclopropyl)-N-(cyclopropylmethyl)-N-[1-(2-pyrimidin-2-yl-1,2,4-triazol-3-yl)ethyl]-4-(trifluoromethyl)pyridine-2-carboxamide]
≥ 80%: percent effect (mortality or growth inhibition) at 200 ppm [1] | percent effect (mortality or growth inhibition) at 200 ppm [2] | mortality at 50 ppm [4] | mortality at 500 ppm [7]
